Legend:
Assay in all cases: Example B2 herbicidal action, post-emergence, pots in glasshouse, damage score 0-10
Assay type in all cases: in vivo
Details in all cases: application post-emergence, rate 1000 g/ha, evaluated after 13 days
Setaria faberi = test system: Setaria faberi
Procedure, shortened: (§1)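 Evaluation took place 13 days post-spray. Treatment used an acetone/water (50:50), 0.5% Tween 20 formulation applied to 8-day-old potted plants, held at 24/16 °C with 14 h light, 65% humidity and twice-daily watering.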

Echinochloa crus-galli = test system: Echinochloa crus-galli
Procedure, shortened: as §1

Solanum nigrum = test system: Solanum nigrum
Procedure, shortened: as §1

Ipomea hederaceae = test system: Ipomea hederaceae
Procedure, shortened: as §1

Amaranthus retroflexus = test system: Amaranthus retroflexus
Procedure, shortened: as §1

| SMILES | SETFA damage score (10=total damage to plant; 0=no damage to plant) (Setaria faberi) | ECHCG damage score (10=total damage to plant; 0=no damage to plant) (Echinochloa crus-galli) | SOLNI damage score (10=total damage to plant; 0=no damage to plant) (Solanum nigrum) | IPOHE damage score (10=total damage to plant; 0=no damage to plant) (Ipomea hederaceae) | AMARE damage score (10=total damage to plant; 0=no damage to plant) (Amaranthus retroflexus) |
| --- | --- | --- | --- | --- | --- |
| C#CCN1c2nccnc2C(OC(=O)C(C)C)=C(c2ccccc2[N+](=O)[O-])S1(=O)=O [Compound C68] | 0 | 0 | 2 | 1 | 0 |
| CCN1c2nccnc2C(OC(=O)C(C)(C)C)=C(c2cc(C(F)(F)F)ccc2C(F)(F)F)S1(=O)=O [Compound C46] | 0 | 4 | 6 | 5 | 4 |
| CCN1c2nccnc2C(OC(=O)C(C)C)=C(c2c(Cl)ccc(Cl)c2C(F)(F)F)S1(=O)=O [Compound C50] | 4 | 5 | 6 | 7 | 5 |
| COc1ccc(F)c(C2=C(OC(=O)C(C)(C)C)c3nccnc3N(CC(F)F)S2(=O)=O)c1Cl [Compound C25] | 0 | 6 | 10 | 9 | 9 |
| O=S1(=O)C(c2c(C(F)(F)F)cccc2C(F)(F)F)=C(O)c2nccnc2N1CC(F)F [Compound D42] | 7 | 4 | 8 | 9 | 7 |
| O=S1(=O)C(c2ccccc2C(F)(F)F)=C(O)c2nccnc2N1CC(F)F [Compound D31] | 9 | 9 | 10 | 10 | 10 |
| CCN1c2nccnc2C(OC(=O)C(C)C)=C(c2ccccc2C(F)(F)F)S1(=O)=O [Compound C63] | 7 | 7 | 9 | 10 | 9 |
| CC(C)C(=O)OC1=C(c2ccccc2I)S(=O)(=O)N(CC(F)F)c2nccnc21 [Compound C117] | 7 | 8 | 10 | 9 | 10 |
| CC(C)C(=O)OC1=C(c2c(F)cccc2C(F)(F)F)S(=O)(=O)N(CC(F)F)c2nccnc21 [Compound C77] | 9 | 9 | 10 | 10 | 10 |
| COCN1c2nccnc2C(OC(=O)C(C)(C)C)=C(c2ccccc2SC(F)(F)F)S1(=O)=O [Compound C23] | 3 | 4 | 6 | 4 | 5 |
| O=S1(=O)C(c2c(Cl)ccc(Cl)c2Cl)=C(O)c2nccnc2N1CC(F)F [Compound D17] | 9 | 9 | 10 | 10 | 10 |
| CC#CCN1c2nccnc2C(OC(=O)C(C)(C)C)=C(c2c(Cl)ccc(Cl)c2C(F)(F)F)S1(=O)=O [Compound C96] | 0 | 1 | 7 | 4 | 0 |
| CC(C)(C)C(=O)OC1=C(c2cccc(C(F)(F)F)c2Cl)S(=O)(=O)N(CC(F)F)c2nccnc21 [Compound C74] | 3 | 4 | 6 | 7 | 7 |

From patent US8133849B2, “Herbicidal compounds” (Syngenta Limited, priority 2007, dated 2012)
